Source: publication PMC3827198, “Characterisation of AmphiAmR11, an Amphioxus (Branchiostoma floridae) D2-Dopamine-Like G Protein-Coupled Receptor” (PLoS ONE, 2013)
Structures can show the parent of a compound that is named as a salt. Where two headings read alike, the source gives them in different places.

How the values were obtained:
AmphiAmR11 [1] = target: T1, AmphiAmR11 (Branchiostoma floridae, UniProt A0PF35); assay: ERK1/2 phosphorylation in AmphiAmR11-expressing CHO-K1 cells (Western blotting); format: cell-based; conditions: for Effect of antagonist on ERK1/2 phosphorylation in the absence of dopamine: 1 μM antagonist
AmphiAmR11 [2] = target: T1, AmphiAmR11; assay: Inhibition of forskolin-stimulated cAMP levels in AmphiAmR11-expressing CHO-K1 cells (agonist mode); format: cell-based; conditions: for Effect on forskolin-stimulated cAMP levels at 1 µM: 1 µM agonist
Protocol: CHO-K1 cells were maintained in Ham’s F-12 nutrient media (Invitrogen Life Sciences) supplemented with 10% charcoal-stripped foetal bovine serum (CS-FBS) (Hyclone, Cramlington, UK), 50 U/μg penicillin/streptomycin and 4 mM L-glutamine (Invitrogen Life Sciences) in 5% CO2 at 37°C. Stably transfected cell lines were generated by the transfection of CHO-K1 cells using Lipofectamine (Invitrogen Life Sciences) as described previously [8, 9].
cAMP levels in stably transfected CHO-K1 cells were determined as described previously [8, 9, 21], except 100 µM isobutylmethylxanthine (IBMX) was used. cAMP levels are represented as a percentage of basal samples unless otherwise stated. Student’s T-test (two-tailed and unpaired) was used to test for significance. Unless otherwise stated, all data are shown as mean ± SEM. Each data point plotted was the mean of data obtained from at least three experiments. Within each experiment three separate replicate wells were analysed for each condition and the cAMP assays on each of the wells was carried out in duplicate.
Forskolin was used both to increase basal cAMP levels to make it easier to detect increases and decreases in cAMP levels in the same experiments and also to potentiate responses to agonists to more accurately determine their threshold effects [see 22]. A non-saturating 10 µM concentration of forskolin was used.
Figure 1 Effect of biogenic amines and synthetic agonists on forskolin-stimulated cAMP levels in AmphiAmR11-expressing CHO-K1 cells. Cells were pre-incubated with 100 µM IBMX for 20 min, followed by incubation with 10 µM forskolin and 100 µM IBMX in the presence of increasing concentrations of various biogenic amines (A) or synthetic agonists (B) for a further 20 min. Data are expressed as the mean ± SEM. n ≥ 3.

AmphiAmR11 [3] = target: T1, AmphiAmR11; assay: cell-based; format: cell-based
AmphiAmR11 [4] = target: T1, AmphiAmR11; assay: Calcium mobilisation in AmphiAmR11-expressing CHO-K1 cells (Fura-2, percentage of responding cells per field of view); format: cell-based; conditions: for Calcium response at 10 nM: 10 nM biogenic amine, compared with dopamine
Protocol: Stably transfected CHO-K1 cells were assayed for changes in intracellular calcium levels using an Olympus Cell^R imaging system and the fluorescent indicator Fura-2, as described previously, with modifications described by Bayliss et al.. At 1 minute into the experiment, a buffer control was added and at 2 minutes into the experiment, the specified concentration of agonist was added. A single coverslip of cells was used per concentration of agonist and the percentage of cells that responded per field of view was calculated. The results from each coverslip gave an n of 1 and each agonist concentration was repeated at least three times on different days.
Figure 6 Effect of biogenic amines and calcium pathway inhibitors on calcium mobilisation in AmphiAmR11-expressing CHO-K1 cells. AmphiAmR11-expressing cells were exposed to increasing concentrations (A) or 10 nM (B) of biogenic amines for 3 minutes and the number of responding cells per field of view were calculated. Data are expressed as the mean ± SEM. n ≥ 3. FOV, field of view; DA, dopamine; TA, tyramine; NA, noradrenaline; Adr, adrenaline; OA, octopamine.

[5] = tested on: dopamine-induced ERK1/2 activation; assay: Effect of pertussis toxin and signalling inhibitors on agonist-induced ERK1/2 activation in AmphiAmR11-expressing CHO-K1 cells; format: cell-based, Chinese hamster; conditions: for Effect of inhibitor on dopamine-induced ERK1/2 phosphorylation: 10 µM inhibitor, 5 minutes
Protocol: Phospho-extracellular signal-related kinase (Phospho-ERK) levels were determined essentially as described previously. Minor modifications have been described. ERK1/2 phosphorylation levels were quantified by densitometry. The developed films were scanned in and analysed using the software program, Aida. The data generated by Aida was then processed using Microsoft Excel. Values for the kinase expression and activity levels were defined as 100% in the control samples. Student’s T-test (two-tailed and unpaired) was used to test for significance.
Figure 5 Effect of pertussis toxin and signalling inhibitors on dopamine-induced ERK1/2 activation in AmphiAmR11-expressing CHO-K1 cells. For the pertussis toxin experiment, AmphiAmR11-expressing CHO-K1 cells were pre-incubated with pertussis toxin (200 ng/ml) for 16 hours prior to serum-starvation for 2 hours in the absence of the toxin. Cells were then stimulated for 5 mins with 10 nM dopamine (open bar) or F-12 Hams control (black bar). For all other inhibitors, AmphiAmR11-expressing CHO-K1 cells were serum starved for 2 hours including incubation with 10 µM inhibitor or F-12 Hams control for the final 20 (AG1296 and AG1478) or 30 (PP2, LY294002, Ro31-8220, U0126, U73122 and U73343) minutes. Cells were then stimulated for 5 minutes with 10 nM dopamine […] in the presence of the inhibitor. Basal measurement in the absence of dopamine and inhibitor (first black bar) and the dopamine-only response in the absence of inhibitor (first open bar) are shown. (A) Representative blots from three or four independent experiments. […] Data are expressed as the mean + SEM. n = 3 - 4. DA, dopamine; PTX, pertussis toxin; Ro, Ro 31-8220; LY, LY294002.
Figure S3. Time courses for the effect of dopamine and tyramine on ERK1/2 phosphorylation in AmphiAmR11-expressing CHO-K1 cells. (A and B) AmphiAmR11-expressing CHO-K1 cells were serum-starved for 2 hours, prior to stimulation with tyramine or dopamine at the specified concentration for the specified length of time. Equal quantities of cell lysates were separated by SDS-PAGE and analysed for pERK or tERK by Western blotting. (C and D): AmphiAmR11-expressing CHO-K1 cells were incubated with pertussis toxin (200 ng/mL) for 16 hours followed by stimulation as described for Figures A and B. (A to D) Representative blot for each condition from three to four independent experiments. (E) Summary of the quantified blots. Data are expressed as the mean ± SEM. n = 3-4. PTX, pertussis toxin; Min, minutes.

AmphiAmR11 [6] = target: T1, AmphiAmR11; assay: Block of dopamine-induced ERK1/2 activation in AmphiAmR11-expressing CHO-K1 cells by antagonists; format: cell-based; conditions: 1 µM antagonist, 10 nM dopamine, 5 min
AmphiAmR11 [7] = target: T1, AmphiAmR11; assay: Block of tyramine-induced inhibition of forskolin-stimulated cAMP levels in AmphiAmR11-expressing CHO-K1 cells; format: cell-based; conditions: 30 nM tyramine
[8] = 1 µM synthetic agonist, 5 min, dopamine as reference
[9] = 10 µM forskolin, 100 µM IBMX, 20 min, full concentration response curves, read-out: EC50 for decrease in forskolin-stimulated cAMP levels
[10] = 10 µM forskolin, 100 µM IBMX, 20 min
[11] = amines at 100 µM, pertussis toxin 200 ng/mL, 16 hours
[12] = pertussis toxin 200 ng/mL, 16 h, up to 100 µM
[13] = 1 μM antagonist, 10 µM forskolin

T1 sequence (A0PF35 entry or part of it): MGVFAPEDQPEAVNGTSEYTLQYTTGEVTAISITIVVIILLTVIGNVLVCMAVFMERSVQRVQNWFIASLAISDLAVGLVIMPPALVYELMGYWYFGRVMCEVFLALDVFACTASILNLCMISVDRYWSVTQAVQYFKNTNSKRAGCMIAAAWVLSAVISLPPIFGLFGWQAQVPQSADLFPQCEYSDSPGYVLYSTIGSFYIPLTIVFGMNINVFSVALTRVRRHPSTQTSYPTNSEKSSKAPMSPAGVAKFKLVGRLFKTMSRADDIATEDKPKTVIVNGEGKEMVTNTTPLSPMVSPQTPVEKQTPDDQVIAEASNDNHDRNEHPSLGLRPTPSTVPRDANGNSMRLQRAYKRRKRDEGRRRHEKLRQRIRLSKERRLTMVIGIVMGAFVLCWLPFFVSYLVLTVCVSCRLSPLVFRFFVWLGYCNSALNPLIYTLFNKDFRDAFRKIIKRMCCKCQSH

Br.C=CCN1CCc2c(cc(O)c(O)c2Cl)C(c2ccccc2)C1 (racemic) [6-Chloro-APB, (±)-6-chloro-7,8-dihydroxy-3-allyl-1-phenyl-2,3,4,5-tetrahydro-^1H-3-benzazepine hydrobromide]
Effect on ERK1/2 phosphorylation at 1 µM (AmphiAmR11 [1]; [8]): less effective than naphazoline, UK14,304 and quinpirole
EC50 (AmphiAmR11 [2]; [9]): 2230 nM

CC(C)NCC(O)c1ccc(O)c(O)c1 (racemic) [isoproterenol, (±)-isoproterenol hydrochloride]
Effect on ERK1/2 phosphorylation at 1 µM (AmphiAmR11 [1]; [8]): little or no effect
Effect on forskolin-stimulated cAMP levels at 1 µM (AmphiAmR11 [2]; [10]): little or no effect

NCC(O)c1ccc(O)cc1 (racemic) [octopamine, (±)-p-octopamine hydrochloride]
Effect on forskolin-stimulated cAMP levels following pertussis toxin treatment (AmphiAmR11 [3]; [11]): did not induce an increase
Effect on ERK1/2 phosphorylation at 10 nM (AmphiAmR11 [1]; 10 nM biogenic amine, 5 min): not able to increase
EC50 (AmphiAmR11 [2]; [9]): 1300 nM
Calcium response at 10 nM (AmphiAmR11 [4]): less effective than dopamine

CC(N)c1ccccc1 (racemic) [phenylethylamine, (±)-1-phenylethylamine]
Concentrations coupling AmphiAmR11 to an increase in cAMP levels (AmphiAmR11 [3]; after pertussis toxin): above 1 µM
Effect on forskolin-stimulated cAMP levels following pertussis toxin treatment (AmphiAmR11 [3]; [11]): increase in forskolin-stimulated cAMP levels
Concentration dependence of increase in forskolin-stimulated cAMP levels following pertussis toxin (AmphiAmR11 [3]; [12]): concentration-dependent effects
EC50 (AmphiAmR11 [1]; 5 min stimulation, read-out: EC50 for inducing ERK1/2 phosphorylation): 57.8 nM
EC50 (AmphiAmR11 [2]; [9]): 16.5 nM

CNCC(O)c1ccc(O)cc1 (racemic) [synephrine, (±)-synephrine]
Effect on forskolin-stimulated cAMP levels following pertussis toxin treatment (AmphiAmR11 [3]; [11]): did not induce an increase
Effect on ERK1/2 phosphorylation at 10 nM (AmphiAmR11 [1]; 10 nM biogenic amine, 5 min): not able to increase
EC50 (AmphiAmR11 [2]): 1650 nM

COc1cc2ncc(-c3ccccc3)nc2cc1OC [AG1296, tyrphostin AG1296]
Effect of inhibitor on dopamine-induced ERK1/2 phosphorylation ([5]; 10 nM dopamine): neither inhibitor had a significant effect

COc1cc2ncnc(Nc3cccc(Cl)c3)c2cc1OC [AG1478, tyrphostin AG 1478]
Effect of inhibitor on dopamine-induced ERK1/2 phosphorylation ([5]; 10 nM dopamine): neither inhibitor had a significant effect

CC(C)(C)n1nc(-c2ccc(Cl)cc2)c2c(N)ncnc21 [PP2, 3-(4-chlorophenyl) 1-(1,1-dimethylethyl)-1H-pyrazolo[3,4-d]pyrimidin-4-amine]
Effect of inhibitor on dopamine-induced ERK1/2 phosphorylation ([5]; 10 nM dopamine): no effect

Cn1cc(C2=C(c3cn(CCCSC(=N)N)c4ccccc34)C(=O)NC2=O)c2ccccc21 [Ro 31-8220]
Effect of inhibitor on dopamine-induced ERK1/2 phosphorylation ([5]; 10 nM dopamine): near basal levels

Oc1cc2c(cc1O)[C@@H](c1ccccc1)CNCC2 [SKF38393, R(+)-1-phenyl-2,3,4,5-tetrahydro-(^1H)-3-benzazepine-7,8-diol]
Effect on ERK1/2 phosphorylation at 1 µM (AmphiAmR11 [1]; [8]): less effective than naphazoline, UK14,304 and quinpirole
EC50 (AmphiAmR11 [2]; [9]): 792 nM

N#CC(=C(N)Sc1ccccc1N)C(C#N)=C(N)Sc1ccccc1N [U0126, 1,4-Diamino-2,3-dicyano-1,4-bis(o-aminophenylmercapto)butadiene]
Effect of inhibitor on dopamine-induced ERK1/2 phosphorylation ([5]; 10 nM dopamine): abolished

Brc1c(NC2=NCCN2)ccc2nccnc12 [UK14,304, UK14304]
Effect on ERK1/2 phosphorylation at 1 µM (AmphiAmR11 [1]; [8]): most effective of the synthetic agonists
EC50 (AmphiAmR11 [2]): 350 nM

COc1cccc(OC)c1OCCNCC1COc2ccccc2O1 (stereo not drawn) [WB4101]
Effect of antagonist on ERK1/2 phosphorylation in the absence of dopamine (AmphiAmR11 [1]): increase in ERK1/2 phosphorylation
Decrease of forskolin-stimulated cAMP levels by antagonist in the absence of agonist (AmphiAmR11 [2]; [13]): could inhibit forskolin-stimulated cAMP levels
EC50 (AmphiAmR11 [2]; [9]): 32 nM
Agonist type at AmphiAmR11 (full or partial) (AmphiAmR11 [2]; cAMP assay): partial agonist
Inhibition of forskolin-stimulated cAMP levels (maximal) (AmphiAmR11 [2]; concentration-response curves, absence of other agonist): approximately 75%
Block of dopamine-induced ERK1/2 activation (AmphiAmR11 [6]): partial effect
Blocking effect on tyramine-induced response at reduced antagonist concentrations (AmphiAmR11 [7]; varying concentrations of antagonist): small blocking effect

CNC[C@H](O)c1ccc(O)c(O)c1 [adrenaline, (-)-adrenaline]
Concentration dependence of increase in forskolin-stimulated cAMP levels following pertussis toxin (AmphiAmR11 [3]): concentration-dependent effects
Concentrations coupling AmphiAmR11 to an increase in cAMP levels (AmphiAmR11 [3]): above 1 µM
Effect on forskolin-stimulated cAMP levels following pertussis toxin treatment (AmphiAmR11 [3]): increase in forskolin-stimulated cAMP levels
Effect on ERK1/2 phosphorylation at 10 nM (AmphiAmR11 [1]): not able to increase
EC50 (AmphiAmR11 [2]): 1340 nM
Calcium response at 10 nM (AmphiAmR11 [4]): less effective than dopamine

Clc1cccc(Cl)c1N=C1NCCN1 [clonidine, clonidine hydrochloride]
Effect on ERK1/2 phosphorylation at 1 µM (AmphiAmR11 [1]): less effective than naphazoline, UK14,304 and quinpirole
EC50 (AmphiAmR11 [2]): 623 nM

NCCc1ccc(O)c(O)c1 [dopamine, dopamine hydrochloride]
EC50 (AmphiAmR11 [3]): 470 nM
Concentrations coupling AmphiAmR11 to an increase in cAMP levels (AmphiAmR11 [3]; after pertussis toxin): less than 1 µM
Effect on forskolin-stimulated cAMP levels following pertussis toxin treatment (AmphiAmR11 [3]; [11]): increase in forskolin-stimulated cAMP levels
EC50 (AmphiAmR11 [1]): 1.27 nM
Duration of ERK1/2 phosphorylation response after the peak (AmphiAmR11 [1]; 1 µM tyramine (level by 30 minutes) or 30 nM dopamine): more sustained ERK1/2 phosphorylation response
Time of peak ERK1/2 phosphorylation (AmphiAmR11 [1]; 1 µM tyramine or 30 nM dopamine): approximately 5 minutes
Fold more potent than tyramine in MAPK assay (AmphiAmR11 [1]; ratio of EC50 values): 10 fold
EC50 (AmphiAmR11 [2]): 16.7 nM
EC50 (AmphiAmR11 [4]): 1.68 nM
Fold more potent than tyramine in calcium assay (AmphiAmR11 [4]; ratio of EC50 values): approximately 450 fold

NCCc1c[nH]cn1 [histamine, histamine dihydrochloride]
Effect on ERK1/2 phosphorylation at 10 nM (AmphiAmR11 [1]; 10 nM biogenic amine, 5 min): not able to increase
Effect on forskolin-stimulated cAMP levels at 1 µM (AmphiAmR11 [2]; [10]): no effect

CCN(CC)CCNC(=O)c1cc(Cl)c(N)cc1OC [metoclopramide, metoclopramide hydrochloride]
Effect of antagonist on ERK1/2 phosphorylation in the absence of dopamine (AmphiAmR11 [1]): did not exhibit any agonistic properties
Block of dopamine-induced ERK1/2 activation (AmphiAmR11 [6]): no significant effect
Block of tyramine-induced inhibition of forskolin-stimulated cAMP levels (AmphiAmR11 [7]; [13]): no significant blocking effect

NC[C@H](O)c1ccc(O)c(O)c1 [noradrenaline, (-)-noradrenaline hydrochloride]
Concentrations coupling AmphiAmR11 to an increase in cAMP levels (AmphiAmR11 [3]; after pertussis toxin): above 1 µM
Effect on forskolin-stimulated cAMP levels following pertussis toxin treatment (AmphiAmR11 [3]; [11]): increase in forskolin-stimulated cAMP levels
Concentration dependence of increase in forskolin-stimulated cAMP levels following pertussis toxin (AmphiAmR11 [3]; [12]): concentration-dependent effects
Effect on ERK1/2 phosphorylation at 10 nM (AmphiAmR11 [1]; 10 nM biogenic amine, 5 min): not able to increase
EC50 (AmphiAmR11 [2]): 844 nM
Calcium response at 10 nM (AmphiAmR11 [4]): less effective than dopamine

CNC[C@H](O)c1cccc(O)c1 [phenylephrine, (R)-(-)-phenylephrine hydrochloride]
Effect on ERK1/2 phosphorylation at 1 µM (AmphiAmR11 [1]; [8]): little or no effect
Effect on forskolin-stimulated cAMP levels at 1 µM (AmphiAmR11 [2]; [10]): little or no effect

pertussis toxin
Effect of pertussis toxin on tyramine- and dopamine-induced ERK1/2 phosphorylation at multiple time points ([5]; pertussis toxin 200 ng/mL, 16 hours, 1 µM tyramine, 30 nM dopamine): abolished
Effect of pertussis toxin on ERK1/2 response at 5 minutes of dopamine stimulation ([5]; pertussis toxin 200 ng/ml, 16 hours, 10 nM dopamine): abolished
Effect of pertussis toxin treatment on amine-mediated decreases in forskolin-stimulated cAMP levels (AmphiAmR11 [3]; pertussis toxin 200 ng/mL, 16 hours): inhibit the amine-mediated decreases
